Results on 13 molecules are retold here after PMC11721672, “Design, Structure–Activity Relationships, and Computational Modeling Studies of a Series of α-Helix Biased, Ultra-Short Glucagon-like Peptide-1 Receptor Agonists” (Molecules, 2024).

The experiment concerns the target T1, hGLP1 receptor (Homo sapiens, UniProt P43220).
T1 construct: expressed in transfected cells; host or cells: HEK (human embryonic kidney) cells co-expressing hGLP1 receptor and CRE-Luciferase
The experiment in a line: GLP-1 receptor agonism assay (HTRF cAMP, HEK cells co-expressing hGLP1 receptor and CRE-Luciferase). The format is cell-based. Conditions: for Emax: HEK293, Table 6 potency profile; for EC50: Table 1, Phe6 modifications, 0% HSA, average of two independent experiments in triplicate (RXL-3039 tested once), read-out: cAMP EC50. The method, then:
Human embryonic kidney cells (HEK) co-expressing the hGLP1 receptor and CRE-Luciferase construct were used to determine agonist potency in this assay. The cells were thawed briefly at 37 °C, transferred to a sterile tube, and re-suspended in complete media at 37 °C. Cells were centrifuged at 1000 rpm for 5 min and collected; the cells were then re-suspended in an assay buffer consisting of Dulbecco’s phosphate-buffered saline (DPBS, GIBCO) with 500 μM of the phosphodiesterase inhibitor 3-isobutyl-1-methylxanthine (IBMX). The assay medium had 0% serum albumin, as specified in Table 1, Table 2, Table 3 and Table 4. The optimal cell density was determined to be 1000 cells/well. Cells were added to wells in 384-well plates containing appropriate pre-prepared dilutions of compounds (test peptides or reference compound exendin-4), sealed, and incubated with CO2 for 30 min. Test peptide solutions were diluted from 10 mM stock solutions to be used in two separate runs (performed in triplicate) from a maximal concentration of 1.0 μM, with 11 concentrations tested for each peptide using serial 1:3 dilution from this maximal concentration. […] The agonist assay was a homogeneous time-resolved fluorescence (HTRF) assay (Cisbio). Following incubation of the cells for 30 min with test or reference peptides, 5 μL of the cAMP acceptor cAMP-d2, prepared previously as a working solution from frozen stock (1:20 dilution), was added to each well of the assay plate along with 5 μL of anti-cAMP antibody-cryptate working solution (diluted 1:20 from frozen stock). The wells were incubated for 1 h at room temperature, and fluorescence was then read at 665 and 615 nm with an Envision reader with a TRF laser. Data were saved and analyzed using Prism software (GraphPad). Concentration–response analysis was performed using 4-parameter logistic fits of the resulting data, and EC50 values were obtained for each test and reference compound.
For orientation: TR-FRET usually uses a lanthanide donor and a delayed reading to cut background.

Square brackets hold non-standard residues; d marks the D form. Peptide text beside a SMILES is read from it. Bip = N[C@@H](Cc1ccc(-c2ccccc2)cc1)C(=O)O; αMeF = C[C@](N)(Cc1ccccc1)C(=O)O; Aib = CC(C)(N)C(=O)O

In general, Emax refers to the maximal effect, on the per cent scale that the assay sets. Broadly, the EC50 is the concentration that produces a half-maximal response.

T1 sequence (P43220 24-463): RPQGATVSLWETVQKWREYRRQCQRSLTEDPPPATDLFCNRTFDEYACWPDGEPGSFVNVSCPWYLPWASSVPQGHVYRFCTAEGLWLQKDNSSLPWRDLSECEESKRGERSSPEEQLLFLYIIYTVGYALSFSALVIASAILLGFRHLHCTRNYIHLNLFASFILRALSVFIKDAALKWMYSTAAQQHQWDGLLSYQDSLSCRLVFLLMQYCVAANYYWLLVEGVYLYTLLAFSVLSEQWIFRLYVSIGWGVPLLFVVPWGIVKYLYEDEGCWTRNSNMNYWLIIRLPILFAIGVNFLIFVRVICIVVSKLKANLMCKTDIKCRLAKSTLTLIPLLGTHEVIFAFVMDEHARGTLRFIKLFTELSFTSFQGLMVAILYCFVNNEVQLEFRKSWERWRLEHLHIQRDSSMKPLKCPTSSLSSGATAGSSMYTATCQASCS

Regarding `C[C@@H](O)[C@H](NC(=O)CNC(=O)[C@H](CCC(=O)O)NC(=O)C(C)(C)NC(=O)[C@@H](N)Cc1c[nH]cn1)C(=O)N[C@@H](Cc1ccccc1C(F)(F)F)C(=O)N[C@H](C(=O)N[C@@H](CO)C(=O)N[C@@H](CC(=O)O)C(=O)N[C@@H](Cc1ccc(-c2ccccc2)cc1)C(=O)N[C@@H](Cc1ccc(-c2ccccc2)cc1)C(N)=O)[C@@H](C)O` [RXL-3012, His-Aib-Glu-Gly-Thr-Phe(2-CF3)-Thr-Ser-Asp-Bip-Bip-NH2], the maximum response (Emax) was determined as 99.3% and the EC50 was determined as 13.9 nM.
Taken in the same sequence, the figures for `Cc1ccccc1C[C@H](NC(=O)[C@@H](NC(=O)CNC(=O)[C@H](CCC(=O)O)NC(=O)C(C)(C)NC(=O)[C@@H](N)Cc1c[nH]cn1)[C@@H](C)O)C(=O)N[C@H](C(=O)N[C@@H](CO)C(=O)N[C@@H](CC(=O)O)C(=O)N[C@@H](Cc1ccc(-c2ccccc2)cc1)C(=O)N[C@@H](Cc1ccc(-c2ccccc2)cc1)C(N)=O)[C@@H](C)O` [RXL-3013, His-Aib-Glu-Gly-Thr-Phe(2-CH3)-Thr-Ser-Asp-Bip-Bip-NH2] were 98.6% and 2.1 nM.
The like results for `C[C@@H](O)[C@H](NC(=O)CNC(=O)[C@H](CCC(=O)O)NC(=O)C(C)(C)NC(=O)[C@@H](N)Cc1c[nH]cn1)C(=O)N[C@@H](Cc1ccccc1[N+](=O)[O-])C(=O)N[C@H](C(=O)N[C@@H](CO)C(=O)N[C@@H](CC(=O)O)C(=O)N[C@@H](Cc1ccc(-c2ccccc2)cc1)C(=O)N[C@@H](Cc1ccc(-c2ccccc2)cc1)C(N)=O)[C@@H](C)O` [RXL-3014, His-Aib-Glu-Gly-Thr-Phe(2-NO2)-Thr-Ser-Asp-Bip-Bip-NH2] were, in that order, 104% and 1.1 nM.
In the case of `C[C@@H](O)[C@H](NC(=O)CNC(=O)[C@H](CCC(=O)O)NC(=O)C(C)(C)NC(=O)[C@@H](N)Cc1c[nH]cn1)C(=O)N[C@@H](Cc1ccccc1C#N)C(=O)N[C@H](C(=O)N[C@@H](CO)C(=O)N[C@@H](CC(=O)O)C(=O)N[C@@H](Cc1ccc(-c2ccccc2)cc1)C(=O)N[C@@H](Cc1ccc(-c2ccccc2)cc1)C(N)=O)[C@@H](C)O` [RXL-3015, His-Aib-Glu-Gly-Thr-Phe(2-CN)-Thr-Ser-Asp-Bip-Bip-NH2], the Emax turned out to be 101% and the EC50 was 7.7 nM.
Taken in the same sequence, the figures for `C[C@@H](O)[C@H](NC(=O)CNC(=O)[C@H](CCC(=O)O)NC(=O)C(C)(C)NC(=O)[C@@H](N)Cc1c[nH]cn1)C(=O)N[C@@H](Cc1cccc(C(F)(F)F)c1)C(=O)N[C@H](C(=O)N[C@@H](CO)C(=O)N[C@@H](CC(=O)O)C(=O)N[C@@H](Cc1ccc(-c2ccccc2)cc1)C(=O)N[C@@H](Cc1ccc(-c2ccccc2)cc1)C(N)=O)[C@@H](C)O` [RXL-3016, His-Aib-Glu-Gly-Thr-Phe(3-CF3)-Thr-Ser-Asp-Bip-Bip-NH2] were 109% and 13.9 nM.
The like results for `C[C@@H](O)[C@H](NC(=O)CNC(=O)[C@H](CCC(=O)O)NC(=O)C(C)(C)NC(=O)[C@@H](N)Cc1c[nH]cn1)C(=O)N[C@@H](Cc1cc(F)c(F)c(F)c1)C(=O)N[C@H](C(=O)N[C@@H](CO)C(=O)N[C@@H](CC(=O)O)C(=O)N[C@@H](Cc1ccc(-c2ccccc2)cc1)C(=O)N[C@@H](Cc1ccc(-c2ccccc2)cc1)C(N)=O)[C@@H](C)O` [RXL-3017, His-Aib-Glu-Gly-Thr-Phe(3,4,5-F)-Thr-Ser-Asp-Bip-Bip-NH2] were, in that order, 113% and 7.2 nM.
Turning to `C[C@@H](O)[C@H](NC(=O)CNC(=O)[C@H](CCC(=O)O)NC(=O)C(C)(C)NC(=O)[C@@H](N)Cc1c[nH]cn1)C(=O)N[C@@H](Cc1c(F)c(F)c(F)c(F)c1F)C(=O)N[C@H](C(=O)N[C@@H](CO)C(=O)N[C@@H](CC(=O)O)C(=O)N[C@@H](Cc1ccc(-c2ccccc2)cc1)C(=O)N[C@@H](Cc1ccc(-c2ccccc2)cc1)C(N)=O)[C@@H](C)O` [RXL-3018, His-Aib-Glu-Gly-Thr-Phe(2,3,4,5,6-F)-Thr-Ser-Asp-Bip-Bip-NH2], the Emax was 102% and the EC50 is 0.3 nM. Also, the “GLP-1R agonist potency relative to RXL-3000” value (versus RXL-3000) is recorded as “threefold less potent”.
On to `C[C@@H](O)[C@H](NC(=O)CNC(=O)[C@H](CCC(=O)O)NC(=O)C(C)(C)NC(=O)[C@@H](N)Cc1c[nH]cn1)C(=O)N[C@@H](CCc1ccccc1)C(=O)N[C@H](C(=O)N[C@@H](CO)C(=O)N[C@@H](CC(=O)O)C(=O)N[C@@H](Cc1ccc(-c2ccccc2)cc1)C(=O)N[C@@H](Cc1ccc(-c2ccccc2)cc1)C(N)=O)[C@@H](C)O` [RXL-3019, His-Aib-Glu-Gly-Thr-hPhe-Thr-Ser-Asp-Bip-Bip-NH2], for which the Emax came out at 110% and the EC50 was found to be 16 nM.
Consider `C[C@@H](O)[C@H](NC(=O)CNC(=O)[C@H](CCC(=O)O)NC(=O)C(C)(C)NC(=O)[C@@H](N)Cc1c[nH]cn1)C(=O)N[C@@](C)(Cc1ccccc1)C(=O)N[C@H](C(=O)N[C@@H](CO)C(=O)N[C@@H](CC(=O)O)C(=O)N[C@@H](Cc1ccc(-c2ccccc2)cc1)C(=O)N[C@@H](Cc1ccc(-c2ccccc2)cc1)C(N)=O)[C@@H](C)O` [RXL-3020, His-Aib-Glu-Gly-Thr-α-Me-Phe-Thr-Ser-Asp-Bip-Bip-NH2] (H-H[Aib]EGT[αMeF]TSD[Bip][Bip]-NH2), for which the Emax was determined as 108%.
As to `C[C@@H](O)[C@H](NC(=O)CNC(=O)[C@H](CCC(=O)O)NC(=O)C(C)(C)NC(=O)[C@@H](N)Cc1c[nH]cn1)C(=O)N[C@@H](Cc1ccc(O)cc1)C(=O)N[C@H](C(=O)N[C@@H](CO)C(=O)N[C@@H](CC(=O)O)C(=O)N[C@@H](Cc1ccc(-c2ccccc2)cc1)C(=O)N[C@@H](Cc1ccc(-c2ccccc2)cc1)C(N)=O)[C@@H](C)O` [RXL-3021, His-Aib-Glu-Gly-Thr-Tyr-Thr-Ser-Asp-Bip-Bip-NH2] (H-H[Aib]EGTYTSD[Bip][Bip]-NH2), the Emax was determined as 100% and the concentration for a half-maximal effect (EC50) came out at 3 nM.
Taken in the same sequence, the figures for `C[C@@H](O)[C@H](NC(=O)CNC(=O)[C@H](CCC(=O)O)NC(=O)C(C)(C)NC(=O)[C@@H](N)Cc1c[nH]cn1)C(=O)N[C@H](Cc1ccccc1)C(=O)N[C@H](C(=O)N[C@@H](CO)C(=O)N[C@@H](CC(=O)O)C(=O)N[C@@H](Cc1ccc(-c2ccccc2)cc1)C(=O)N[C@@H](Cc1ccc(-c2ccccc2)cc1)C(N)=O)[C@@H](C)O` [RXL-3022, His-Aib-Glu-Gly-Thr-D-Phe-Thr-Ser-Asp-Bip-Bip-NH2] were 101% and 23.2 nM.
Taken in the same sequence, the figures for `C[C@@H](O)[C@H](NC(=O)CNC(=O)[C@H](CCC(=O)O)NC(=O)C(C)(C)NC(=O)[C@@H](N)Cc1c[nH]cn1)C(=O)N[C@@H](Cc1c[nH]c2ccccc12)C(=O)N[C@H](C(=O)N[C@@H](CO)C(=O)N[C@@H](CC(=O)O)C(=O)N[C@@H](Cc1ccc(-c2ccccc2)cc1)C(=O)N[C@@H](Cc1ccc(-c2ccccc2)cc1)C(N)=O)[C@@H](C)O` [RXL-3023, His-Aib-Glu-Gly-Thr-Trp-Thr-Ser-Asp-Bip-Bip-NH2] (H-H[Aib]EGTWTSD[Bip][Bip]-NH2) were 106% and 13.8 nM.
Taken in the same sequence, the figures for `C[C@@H](O)[C@H](NC(=O)CNC(=O)[C@H](CCC(=O)O)NC(=O)C(C)(C)NC(=O)[C@@H](N)Cc1c[nH]cn1)C(=O)N[C@@H](Cc1ccc(-c2ccccc2)cc1)C(=O)N[C@H](C(=O)N[C@@H](CO)C(=O)N[C@@H](CC(=O)O)C(=O)N[C@@H](Cc1ccc(-c2ccccc2)cc1)C(=O)N[C@@H](Cc1ccc(-c2ccccc2)cc1)C(N)=O)[C@@H](C)O` [RXL-3024, His-Aib-Glu-Gly-Thr-Bip-Thr-Ser-Asp-Bip-Bip-NH2] (H-H[Aib]EGT[Bip]TSD[Bip][Bip]-NH2) were 102% and 10.8 nM.
